{
  "source": "patent US4766114A",
  "about": "“Tricyclic compound called 5-((3-chloro-6-methyl-5,5-dioxo-6,11-dihydro-dibenzo (c,f) (1,2)thiazepin-11-yl)-amino) pentanoic acid” (ADIR Et Compagnie, priority 1986, dated 1988)",
  "key": {"antidepressant activity [1]": {"tested_on": "antidepressant activity", "conditions": "French Pat. No. 71.32197; cited from earlier work"}, "[2]": {"tested_on": "aggressivity of isolated mice", "test": "Effects on the aggressivity of isolated mice", "format": "in vivo, mouse (male CD)", "conditions": "for % OF PROTECTED COUPLES (no attack) / MEAN NUMBER OF ATTACKS ± SD: 30 minutes before test; for % OF PROTECTED COUPLES (no attack): 10 couples; for MEAN NUMBER OF ATTACKS ± SD: 3 minute test", "protocol": "The male CD mice (Charles RIVER) used in this study were housed in small (18×10×10 cm) individual cages with the walls painted black, with one mouse per cage, for several months, at a constant temperature of 21° C. and in a light-darkness cycle of 12 hours. The average weight of the mice at the time of the study was 45 g.\nEach experimental group comprised 10 couples of mice previously selected for their aggressivity. The aggressivity test was carried out on non-fasting animals. The \"intruding\" mouse of each couple was placed in the cage containing the other mouse for a 3 minute period.\nThe product was administered by the intraperitoneal route, 30 minutes before the test."}, "antidepressant activity [3]": {"tested_on": "antidepressant activity", "test": "Antidepressant activity (standard pharmacological tests)", "format": "in vivo", "excerpt": "The standard pharmacological tests used to evaluate the antidepressant activity of new chemical compounds, described, in particular, in Enna S. J. et al. \"Antidepressants: Neurochemical Behavioral, and Clinical Perspectives\" Raven Press N.Y. 1981, p."}, "[4]": {"tested_on": "reserpine-induced ptosis in the mouse", "test": "Effects on reserpine-induced ptosis in the mouse", "format": "in vivo, mouse (male NMRI)", "conditions": "25 mg.kg^-1 IP, reserpine 2 mg.kg^-1 IV", "protocol": "This experiment was carried out on groups of 20 male NMRI mice (IFFA-CREDO), with an average weight of 20±2 g. […] GOURET et al., in J. Pharmacol., 1977, 8, (3) p. 333-350.\nOne hour after the injection of the reserpine, the animals were placed on a 5 cm×5 cm square, wood platform for 20 seconds. Ptosis was considered to be positive if the animal's eyes remained shut during the 20 seconds after it was placed on the platform. On the other hand, the animal was considered to be protected if the eyes were not completely closed during the 20 seconds following the moment when it was placed on the platform."}, "[5]": {"tested_on": "tetrabenazine-induced ptosis in the mouse", "test": "Effects on tetrabenazine-induced ptosis in the mouse", "format": "in vivo, mouse (male CD)", "protocol": "Male CD mice (Charles River), of average weight 23 g, were distributed in groups of 12 animals. […] The dose of products tested was 25 mg.kg^-1. The animals were observed individually 5, 25, 35 and 55 minutes after the injection of the tetrabenazine and the intensity of the ptosis was evaluated using a 0 to 4 rating scale."}, "[6]": {"tested_on": "reserpine-induced hypothermia in the mouse", "test": "Effects on reserpine-induced hypothermia in the mouse", "format": "in vivo, mouse (NMRI)", "conditions": "50 mg.kg^-1 IP", "protocol": "This study was carried out on experimental groups of 10 NMRI mice (IFFA-CREDO) fasted for 18 hours. […] One hour later, all the animals were given an intraperitoneal injection of 2 mg.kg^-1 of reserpine. Hypothermia was evaluated 4 hours after the injection of reserpine by measuring the rectal temperature using an electric thermometer."}, "[7]": {"conditions": "20 mg.kg^-1 IP, controls 0%, S = statistically significant change"}},
  "note": "Read-outs that look alike come from different tables or passages of the source.",
  "data": [
    {"smiles": "CN1c2ccccc2C(NCCCCCCC(=O)O)c2ccc(Cl)cc2S1(=O)=O", "note": "(stereo not shown) [TAHA, 7-[(3-chloro-6-methyl-5,5-dioxo-6,11-dihydro-dibenzo(c,f)(1,2)thiazepin-11-yl)-amino]heptanoic acid, reference compound]", "values": [
      {"measurement": "antidepressant properties (in words)", "setting": "antidepressant activity [1]", "result": "antidepressant properties"},
      {"measurement": "% OF PROTECTED COUPLES (no attack)", "setting": "[2]; 10 mg.kg^-1 IP, controls 10%", "result": 10, "unit": "%"},
      {"measurement": "anti-aggressive effect (in words)", "setting": "[2]; 20 mg.kg^-1 IP", "result": "clear anti-aggressive effect"},
      {"measurement": "% OF PROTECTED COUPLES (no attack)", "setting": "[2]; [7]", "result": 40, "unit": "%"},
      {"measurement": "MEAN NUMBER OF ATTACKS ± SD", "setting": "[2]; 20 mg.kg^-1 IP, water controls 8.3 ± 6.0", "result": "3.7 ± 4.9"}
    ]},
    {"smiles": "CN1c2ccccc2C(NCCCCC(=O)O)c2ccc(Cl)cc2S1(=O)=O", "note": "(stereo not shown) [compound of the formula I, 5-[(3-chloro-6-methyl-5,5-dioxo-6,11-dihydro-dibenzo(c,f)(1,2)thiazepin-11-yl)-amino]pentanoic acid]", "values": [
      {"measurement": "antidepressant activity (in words)", "setting": "antidepressant activity [3]", "result": "much greater antidepressant activity"},
      {"measurement": "antidepressant activity (in words)", "setting": "antidepressant activity [3]; listed as 5-[(3-chloro-6-methyl-5,5-dioxo-6,11-dihydrodibenzo(c,f)(1,2)thiazepin-11-yl)-a", "result": "very potent antidepressant activity"},
      {"measurement": "antagonism of reserpine-induced ptosis (in words)", "setting": "[4]", "result": "much more active"},
      {"measurement": "animals protected from ptosis", "setting": "[4]; 20 male NMRI mice per group", "result": 53, "unit": "%"},
      {"measurement": "activity against tetrabenazine-induced ptosis compared with TAHA (in words)", "setting": "[5]; 25 mg.kg^-1 IP", "result": "much greater and long-lasting activity than TAHA"},
      {"measurement": "% controls (% change of the mean ptosis scores in comparison with the controls), 5 MINUTES", "setting": "[5]; 25 mg.kg^-1 IP, 5 minutes after tetrabenazine 20 mg.kg^-1", "result": -69, "unit": "%"},
      {"measurement": "MEAN VALUE OF THE PTOSIS INTENSITY SCORE ± SD, 5 MINUTES", "setting": "[5]; 25 mg.kg^-1 IP, 5 minutes after tetrabenazine 20 mg.kg^-1, 0 to 4 scale, controls 1.33 ± 0.65", "result": "0.42 ± 0.51"},
      {"measurement": "% controls (% change of the mean ptosis scores in comparison with the controls), 25 MINUTES", "setting": "[5]; 25 mg.kg^-1 IP, 25 minutes after tetrabenazine 20 mg.kg^-1", "result": -32, "unit": "%"},
      {"measurement": "% controls (% change of the mean ptosis scores in comparison with the controls), 35 MINUTES", "setting": "[5]; 25 mg.kg^-1 IP, 35 minutes after tetrabenazine 20 mg.kg^-1", "result": -35, "unit": "%"},
      {"measurement": "MEAN VALUE OF THE PTOSIS INTENSITY SCORE ± SD, 35 MINUTES", "setting": "[5]; 25 mg.kg^-1 IP, 35 minutes after tetrabenazine 20 mg.kg^-1, 0 to 4 scale, controls 2.83 ± 0.58", "result": "1.83 ± 0.39"},
      {"measurement": "MEAN VALUE OF THE PTOSIS INTENSITY SCORE ± SD, 55 MINUTES", "setting": "[5]; 25 mg.kg^-1 IP, 55 minutes after tetrabenazine 20 mg.kg^-1, 0 to 4 scale, controls 3.08 ± 0.51", "result": "2.42 ± 0.67"},
      {"measurement": "% controls (% change of the mean ptosis scores in comparison with the controls), 55 MINUTES", "setting": "[5]; 25 mg.kg^-1 IP, 55 minutes after tetrabenazine 20 mg.kg^-1, NS = Non significant", "result": -22, "unit": "%"},
      {"measurement": "MEAN VALUE OF THE PTOSIS INTENSITY SCORE ± SD, 25 MINUTES", "setting": "[5]; mouse, in vivo, ip", "result": "1.75 ± 0.45"},
      {"measurement": "antagonism of reserpine-induced hypothermia (in words)", "setting": "[6]", "result": "much higher"},
      {"measurement": "FINAL TEMPERATURES MEAN ± SD", "setting": "[6]; rectal temperature 4 hours after reserpine 2 mg.kg^-1 IP, controls 24.7 ± 0.88", "result": "30.9 ± 3.7"},
      {"measurement": "% OF PROTECTED COUPLES (no attack)", "setting": "[2]; 10 mg.kg^-1 IP, controls 10%", "result": 20, "unit": "%"},
      {"measurement": "MEAN NUMBER OF ATTACKS ± SD", "setting": "[2]; 10 mg.kg^-1 IP, water controls 6.7 ± 4.7 (ATAH), 5.4 ± 2.8 (formula I)", "result": "7.2 ± 5.9"},
      {"measurement": "anti-aggressive effect (in words)", "setting": "[2]; 20 mg.kg^-1 IP", "result": "clear anti-aggressive effect"},
      {"measurement": "% OF PROTECTED COUPLES (no attack)", "setting": "[2]; [7]", "result": 60, "unit": "%"},
      {"measurement": "anti-aggressive activity compared with TAHA (in words)", "setting": "[2]; isolated mice, IP", "result": "much greater than that of TAHA"}
    ]}
  ]
}
